“Also recorded” adds a separate entry of the source. Bridge positions count the residues as written; N and C are the ends. Peptide text beside a SMILES is read from it.
Columns and labels:
rat Kv1.2 = target: T1, rat Kv1.2 (Rattus norvegicus, UniProt P63142); assay: Two-electrode voltage clamp, Kv1.2 expressed in Xenopus laevis oocytes; assay type: cell-based
T1 construct: expressed in transfected cells; host or cells: Xenopus laevis oocytes, cRNA injection
Excerpt: (§1) 4.11. Oocyte Preparation and Electrophysiological Recordings
(§2) The xenopus was anesthetized in a bath of tricaine solution. It was then placed on its back in a dissecting tank covered with alcohol-cleaned BenchGuard paper. A horizontal slit was made in the animal’s lower abdomen by incising a piece of the underlying muscle with the skin. The ootheca were then gently pulled outwards and a portion was cut out and transferred to a sterile Erlen tube containing MBS medium, leaving the rest in place in the ovary. Finally, the incision was closed using sterile, absorbable sutures.
(§3) Xenopus laevis oocytes at stages V and VI were retrieved and prepared for cRNA injection and electrophysiological recordings. The enzymatic elimination of oocyte follicular cell layers was carried out by employing 2 mg·mL^−1 collagenase IA (Sigma, St. Louis, MO, USA) in the classical Barth’s medium containing (in mm) 88 NaCl, 1 KCl, 0.82 MgSO4, 0.33 Ca(NO3)2, 0.41 CaCl2, 2.4 NaHCO3, and 15N-2-hydroxyethylpiperazine-N′-ethanesulfonic acid (Hepes), with a pH of 7.4 (NaOH). The plasmids were digested using Xba1 (rat Kv1.2) and EcoR1 (rat Kv1.3). The resultant linearized plasmids were transcribed using either a T7 or SP6 mMessage mMachine transcription kit (Ambion, Austin, TX, USA). Subsequently, cRNAs (1 µg·µL^−1) were cryopreserved in H2O at −80 °C. Injection of cells with 50 nL of cRNA (0.2 µg·µL^−1 rat Kv1.2, or Kv1.3 channels) took place 2 days later. To promote the expression of ion channels, the cells were cultured at 16 °C in a specified nutrient oocyte medium for 2–6 days prior to conducting current recordings. Oocyte currents were captured at 20–22 °C using conventional two-microelectrode techniques with a voltage-clamp amplifier (GeneClamp 500; Axon Instruments, Foster City, CA, USA) linked to a 16-bit AD/DA converter (Digidata 1200A, Axon Instruments). […] Voltage pulses were administered every 15 s, maintaining a holding potential of −80 mV. Current data were sampled at 10 kHz, subjected to low-pass filtration at 2 kHz through an eight-pole Bessel filter and archived on a computer for subsequent assessment. The extracellular solution for recording contained (in mM) 88 NaCl, 10 KCl, 2 MgCl2, 0.5 CaCl2, 0.5 niflumic acid, 5 Hepes, and 0.1% bovine serum albumin, with a pH of 7.4 (NaOH). The P/4 protocol was implemented for online subtraction of the leak and capacitive currents. Any residual capacitive artifacts were eliminated for visualization purposes. The peptide solutions of MTX1 were perfused into the recording chamber at a flow rate of 2 mL/min using a ValveBank4 apparatus (Automate Scientific Inc., St Berkeley, CA 94710, USA). Data analysis was conducted using the software patch clamp 6.0.3 (Axon Instruments, Foster City, CA, USA). The outcomes are presented as the mean ± SEM.

C57BL/6 mice = assay: Neurotoxic activity in mice by intracerebroventricular injection (LD50); assay type: in vivo, mouse
Experimental: 4.5. The Neurotoxic Activity of MTX1 in Mice
To assess the LD50 of the MTX1, different doses of the peptide were administered to males C57BL/6 mice (20 ± 2 g) by an intracerebroventricular injection under ether anesthesia, which is considered the most sensitive route for scorpion toxins in mammals. Each dose was suspended/diluted in 5 μL of 0.1% (w/v) BSA and tested on six mice. Symptoms of toxicity were observed and recorded over a 24 h period. The median lethal dose (LD50) corresponds to the dose required to kill half of the tested mice.

[1] = system: anti-MTX mice polyclonal antibodies; assay: ELISA cross-antigenicity with anti-MTX serum; assay type: binding, mouse
Experimental: Upon retrieval of pre-immune serum via retro-orbital puncture, 30 µg of MTX1 or saline (0.9% NaCl) in complete Freund’s adjuvant was subcutaneously administered to 6-week-old mice on day 1. Subsequent booster injections of incomplete Freund’s adjuvant were administered 15 and 25 days later. On […], the mice were bled and used for ELISA experiments in 96-well microtitration plates (catalog number M5785-1CS Sigma Aldrich, MO, USA). […] The optimal dilution of the immune serum resulting in half-maximum binding of MTX to its specific antiserum was determined to be 1/100,000.
The specificity of anti-MTX against MTX1 and CHTX toxins was assessed using ELISA. One hundred microliters of 5 μg/mL of antigen (MTX1 and CHTX) in 0.1 M sodium bicarbonate buffer at pH 9.6 were adsorbed on 96-well NUNC plates for 90 min at 37 °C. […] Finally, 200 μL of 0.4 mg/mL OPD in citrate buffer (pH 5.2 containing H2O2 (0.03%) was added to each well, followed by a 5 min incubation in the dark at room temperature. The reaction was halted by adding 50 μL of 2 N sulfuric acid. The absorbance at 492 nm was measured using a spectrophotometer (Thermo-Multiskan EX, Shanghai, China). The immune serum titer corresponded to the dilution that yielded 50% of the maximum absorbance.

[2] = system: 125I-CHTX binding site of rat brain synaptosomes (Kv channels); assay: Competition binding with 125I-CHTX on rat brain synaptosomes; conditions: conclusion in words
rat Kv1.3 = target: T2, rat Kv1.3 (Rattus norvegicus, UniProt P15384); assay: Two-electrode voltage clamp, Kv1.3 expressed in Xenopus laevis oocytes; assay type: cell-based
T2 construct: expressed in transfected cells; host or cells: Xenopus laevis oocytes, cRNA injection
Excerpt: as §1, §2, §3

[3] = system: 125I-apamin binding site of rat brain synaptosomes (SKCa channels); assay: Competition binding with 125I-apamin on rat brain synaptosomes (SKCa channels)
Experimental: The rats were euthanized by dislocation and their brains were rapidly removed and placed on a cold plate. The brain tissue was suspended in a 10% (w/v) sucrose-HEPES buffer in a polytron homogenizer with a protease inhibitor. Synaptosomal membranes were prepared as previously described. The protein content of the membranes, determined by the […], was 0.92 µg/µL. The protein content was determined using a modified Lowry method, with assays conducted on the synaptosomal fraction P2 isolated from rat brain. MTX1 was reacted with Na [^125I] (Amersham Biosciences, Buckinghamshire, United Kingdom) in the presence of lactoperoxidase and H2O2 in 50 mM phosphate buffer at pH 7.2. The separation of free iodine was achieved by anion exchange chromatography using Dowex 1X-8 (Merck, Darmstadt, Germany). The mixture was then injected into a reverse-phase HPLC column (analytical RP-C18 Beckman, Ultrasphere, 5 μm, 4.6 × 250 mm). Solvent A consisted of 0.1% trifluoroacetic acid (v/v) in water, and solvent B consisted of 0.1% trifluoroacetic acid (v/v) in acetonitrile. The HPLC experiments were performed as previously described. Radioactivity was quantified using a Packard spectrometer (Crystal I1 multidetector system, San Francisco, CA, USA) with the native toxin eluted at 18 min. The iodination mixture yielded only two peaks (RT = 2 min and RdT = 25 min); approximately 70–85% of the radioactivity was linked to the peak (RT = 25 min), which was postulated to correspond to the mono-iod derivative.
4.10. Binding Assay for SKCa Channels
The process of iodination of apamin was executed utilizing IODO-GEN. In displacement assays, 50 μL of 0.1 nM ^125I-apamine (2000 Ci/mmol) was combined with 400 µL of synaptosome suspension (0.4 mg protein/mL). The samples were incubated with 50 µL of one of the competitor concentration series (MTX1, MTX or CHTX) in a final volume of 500 µL for 1 h at 0 °C. The incubation buffer consisted of 25 mM hydroxymethyl amino methane (Tris-HCl) (pH 7.2), 10 mM potassium chloride (KCl) and 0.1% BS. Following centrifugation for 10 min, the samples were centrifuged again and the resulting pellets were washed three times with 2 mL of the same buffer. The quantification of bound radioactivity was conducted utilizing (Packard Crystal II). The mean values of triplicate experiments are reported. Non-specific binding, characterized as less than 10% of total binding, was determined in the presence of an excess (10 nM) of unlabeled apamin.

glioblastoma = conditions: subject of clinical trials; ref [9],[12],[13]; cited from earlier work
Excerpt: (§4) For instance, several research projects have focused on the use of scorpion neurotoxins as potential new treatments against cancers.

[4] = system: glioma and melanoma cells; conditions: glioma (charybdotoxin) and melanoma (iberiotoxin); ref [12],[14]; cited from earlier work
Excerpt: as §4

[5] = system: human lung adenocarcinoma cells; conditions: by blocking Kv1.2 and Kv1.3; ref [15],[16]; cited from earlier work
Excerpt: as §4

[6] = 2.5 nM, extracellular application
[7] = comparison in words (Kv1.2 and SKCa channels together)
[8] = kinetics of inhibition, after washing
[9] = oocytes, one value printed for Kv1.2 and Kv1.3

T1 sequence (P63142 whole entry): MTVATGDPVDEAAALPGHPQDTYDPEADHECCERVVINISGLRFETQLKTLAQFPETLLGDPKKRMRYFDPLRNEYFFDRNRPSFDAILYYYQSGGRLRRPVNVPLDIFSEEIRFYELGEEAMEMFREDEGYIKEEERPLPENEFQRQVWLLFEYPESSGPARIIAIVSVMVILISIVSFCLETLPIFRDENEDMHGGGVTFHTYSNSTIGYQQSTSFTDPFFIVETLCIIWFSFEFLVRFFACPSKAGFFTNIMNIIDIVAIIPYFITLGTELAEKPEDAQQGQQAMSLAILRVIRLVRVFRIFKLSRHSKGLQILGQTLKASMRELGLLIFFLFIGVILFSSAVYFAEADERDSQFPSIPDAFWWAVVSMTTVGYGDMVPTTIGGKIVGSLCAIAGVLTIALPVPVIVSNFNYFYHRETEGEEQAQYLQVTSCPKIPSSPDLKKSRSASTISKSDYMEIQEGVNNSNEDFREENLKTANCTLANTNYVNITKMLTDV
T2 sequence (P15384 whole entry): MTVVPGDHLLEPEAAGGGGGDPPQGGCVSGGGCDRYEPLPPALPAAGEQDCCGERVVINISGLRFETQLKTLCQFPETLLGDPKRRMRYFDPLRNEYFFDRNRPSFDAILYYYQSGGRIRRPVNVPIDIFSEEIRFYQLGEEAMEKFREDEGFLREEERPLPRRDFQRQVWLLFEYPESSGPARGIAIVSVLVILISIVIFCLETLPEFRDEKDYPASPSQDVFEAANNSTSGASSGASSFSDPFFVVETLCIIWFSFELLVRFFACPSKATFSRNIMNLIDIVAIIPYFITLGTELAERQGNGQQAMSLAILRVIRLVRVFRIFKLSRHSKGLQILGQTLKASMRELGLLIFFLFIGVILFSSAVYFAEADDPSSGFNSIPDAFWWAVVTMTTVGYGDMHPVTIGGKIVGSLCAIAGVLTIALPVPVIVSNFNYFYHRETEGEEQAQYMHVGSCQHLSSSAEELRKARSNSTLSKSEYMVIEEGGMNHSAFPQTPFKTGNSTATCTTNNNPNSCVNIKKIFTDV

## CSCC[C@@H]1NC(=O)[C@@H]2CSSC[C@H](NC(=O)[C@H](CO)NC(=O)[C@@H](N)C(C)C)C(=O)N[C@@H]([C@@H](C)O)C(=O)NCC(=O)N[C@@H](CO)C(=O)N[C@@H](CCCCN)C(=O)N[C@@H](CCC(=O)O)C(=O)N[C@@H](CSSC[C@@H](C(=O)N[C@@H](CCCCN)C(=O)N[C@H]3CSSC[C@@H](C(N)=O)NC(=O)CNC(=O)[C@H](Cc4ccc(O)cc4)NC3=O)NC(=O)[C@H](CCCCN)NC(=O)[C@H](CCCNC(=N)N)NC(=O)[C@H](CC(N)=O)NC1=O)C(=O)N[C@@H](Cc1ccc(O)cc1)C(=O)N[C@@H](C)C(=O)N1CCC[C@H]1C(=O)N[C@H]1CSSC[C@H](NC(=O)CNC(=O)[C@H]([C@@H](C)O)NC(=O)[C@H](CCC(N)=O)NC(=O)[C@H](CCCCN)NC(=O)[C@H](CCCCN)NC1=O)C(=O)N1CCC[C@H]1C(=O)N[C@@H](CC(N)=O)C(=O)N[C@@H](C)C(=O)N[C@@H](CCCCN)C(=O)N2 [MTX1] (H-VSCTGSKECYAPCKKQTGCPNAKCMNRKCKCYGC-NH2; disulfide 3-24, 9-29, 13-19, 31-34; N-terminus and C-terminus assumed)
Rat Kv1.2; 0.26 nM of MTX1 against 0.8 nM of MTX
  IC50 on Kv1.2 relative to MTX: three times lower than that of MTX
Rat Kv1.2; [6]
  Reduction of outward Kv1.2 currents over voltage: markedly reduced outward Kv1.2 and Kv1.3 currents at all test voltages examined
Rat Kv1.2; 2.5 nM, oocytes, read-out: Inhibition of Kv1.2 currents
  inhibition at 0.0025 µM: 90%
Rat Kv1.2; [7]
  Potency on Kv1.2 relative to MTX: higher binding affinity; also recorded: more active than MTX on the Kv1.2 channel; also recorded: significantly more effective at inhibiting the Kv1.2 currents and SKCa channels
Rat Kv1.2; [8]
  Reversibility on washing, Kv1.2: partial recovery after the washing
Rat Kv1.2; [9]
  Hill coefficient, Kv1.2 concentration-response: 1.1 ± 0.1
C57BL/6 mice; i.c.v. injection
  Toxicity in mice (qualitative): highly toxic
C57BL/6 mice; i.c.v., LD50 comparison with MTX
  Toxicity in mice relative to MTX: approximately eight times more lethal than MTX; also recorded: eight times more effectively than MTX; also recorded: eight times more toxicity than MTX
C57BL/6 mice; i.c.v., doses 4, 6, 8, 10, 15 and 20 ng, six mice each
  Dose with maximum fatality rate: 20 ng
C57BL/6 mice; i.c.v., doses 4–20 ng
  Time to death: 10 min
C57BL/6 mice; i.c.v., male C57BL/6 mice (20 ± 2 g), six mice per dose, 4–20 ng, observed 24 h
  LD50: 10 ng per mouse
C57BL/6 mice; i.c.v., mice
  LD50: 0.01 μg/mouse
[1]; different dilutions of anti-MTX mice polyclonal antibodies
  Recognition by anti-MTX antibodies: well recognized by anti-MTX antibodies; also recorded: distinctly recognized
[1]; plates coated with 5 µg/mL antigen
  IC50 of anti-MTX serum binding relative to MTX: identical
[2]
  Interaction with the CHTX-binding site: partially interacted with the CHTX-binding site
Rat Kv1.3; [6]
  Reduction of outward Kv1.3 currents over voltage: markedly reduced outward Kv1.2 and Kv1.3 currents at all test voltages examined
Rat Kv1.3; comparison in words
  Block of Kv1.3 relative to MTX: comparable effect to MTX; also recorded: in a comparable manner to MTX
Rat Kv1.3; [8]
  Reversibility on washing, Kv1.3: partial recovery after the washing
Rat Kv1.3; [9]
  Hill coefficient, Kv1.3 concentration-response: 1.1 ± 0.1
[3]; [7]
  Potency on SKCa channels relative to MTX: higher binding affinity; also recorded: significantly more effective at inhibiting the Kv1.2 currents and SKCa channels
[3]; comparison of IC50 of MTX1 with IC50 of MTX (5 nM)
  Affinity relative to MTX, apamin-sensitive SKCa channels: almost three times higher than that of MTX
[3]; rat brain synaptosomes (0.4 mg protein/mL), 50 μL of 0.1 nM 125I-apamin, 1 h, 0 °C, pH 7.2, mean of triplicate, read-out: IC50, inhibition of 125I-apamin binding
  IC50: 1.7 nM
[3]; rat brain synaptosomes, conclusion in words
  Recognition of apamin receptor sites: recognizes apamin receptor sites with a high affinity and binds partially with these sites

## chlorotoxin
glioblastoma
  Effect on glioblastoma cells: specifically targets the invasion and migration of glioblastoma cells

## iberiotoxin (QFTDVDCSVSKECWSVCKDLFGVDRGKCMGKKCRCYQ; UniProt P24663 1-37, looked up)
[4]
  Inhibition of tumor cell proliferation and migration: able to inhibit glioma and melanoma cell proliferation and migration

## margatoxin (TIINVKCTSPKQCLPPCKAQFGQSAGAKCMNGKCKCYPH; UniProt P40755 1-39, looked up)
[5]
  Inhibition of proliferation: inhibited the proliferation of human lung adenocarcinoma cells
